Measured values as given in the supplement of paper PMC6045584.
± gives the standard deviation of the averaged measurements.

How the values were obtained:
NILOTINIB = compound: Cc1cn(-c2cc(NC(=O)c3ccc(C)c(Nc4nccc(-c5cccnc5)n4)c3)cc(C(F)(F)F)c2)cn1 [NILOTINIB]; test: surviving fraction relative to DMSO-only wells; higher = less growth inhibition; conditions: exposure time: 5 days
Summary of the method: (§1)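 Surviving fraction is CellTiter-Glo luminescence divided by the median of wells given DMSO only. For this, log-phase tumour cell lines went into 384-well plates at 250–500 cells per well and, 24 hours later, into five days of continuous inhibitor exposure at 0.5, 1, 5, 10, 50, 100, 500 and 1000 nM. Lines were screened three times and retained only if replicate Pearson r >0.7 and median Z' >0.3.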

VORINOSTAT = compound: O=C(CCCCCCC(=O)Nc1ccccc1)NO [VORINOSTAT]; test: as above; conditions: exposure time: 5 days
Summary of the method: as §1

Test System | surviving fraction (NILOTINIB; 0.5 nM) | surviving fraction (NILOTINIB; 1 nM) | surviving fraction (NILOTINIB; 5 nM) | surviving fraction (NILOTINIB; 10 nM) | surviving fraction (NILOTINIB; 50 nM) | surviving fraction (NILOTINIB; 100 nM) | surviving fraction (NILOTINIB; 500 nM) | surviving fraction (NILOTINIB; 1000 nM) | surviving fraction (VORINOSTAT; 0.5 nM) | surviving fraction (VORINOSTAT; 1 nM) | surviving fraction (VORINOSTAT; 5 nM) | surviving fraction (VORINOSTAT; 10 nM) | surviving fraction (VORINOSTAT; 50 nM) | surviving fraction (VORINOSTAT; 100 nM) | surviving fraction (VORINOSTAT; 500 nM) | surviving fraction (VORINOSTAT; 1000 nM)
22RV1 PROSTATE | 1.04 ± 0.05 | 1.07 ± 0.026 | 1.13 ± 0.079 | 1 ± 0.022 | 1.18 ± 0.13 | 1.09 ± 0.1 | 1.09 ± 0.043 | 1.09 ± 0.038 | 0.946 ± 0.09 | 1.02 ± 0.026 | 0.987 ± 0.054 | 0.994 ± 0.034 | 1.09 ± 0.046 | 1.03 ± 0.058 | 1.03 ± 0.051 | 0.726 ± 0.071
93VU HEADNECK | 1.01 ± 0.03 | 0.97 ± 0.013 | 1.1 ± 0.1 | 1.14 ± 0.058 | 0.964 ± 0.049 | 1.03 ± 0.088 | 0.938 ± 0.076 | 0.872 ± 0.057 | 0.966 ± 0.02 | 1.06 ± 0.045 | 1.09 ± 0.087 | 1.08 ± 0.077 | 1.18 ± 0.093 | 1.1 ± 0.07 | 0.947 ± 0.035 | 0.731 ± 0.13
143B BONE | 1.09 ± 0.076 | 1.07 ± 0.043 | 1.13 ± 0.1 | 1.11 ± 0.081 | 1.14 ± 0.12 | 1.14 ± 0.11 | 1.1 ± 0.11 | 1.11 ± 0.11 | 1.01 ± 0.0028 | 1.02 ± 0.011 | 1.053 ± 0.0014 | 1.01 ± 0.031 | 1.01 ± 0.03 | 1.02 ± 0.042 | 0.858 ± 0.11 | 0.835 ± 0.026
A549 LUNG | 1.06 ± 0.018 | 1.042 ± 0.01 | 1.11 ± 0.024 | 1.08 ± 0.037 | 1.1 ± 0.03 | 1.13 ± 0.045 | 1.08 ± 0.028 | 1.11 ± 0.043 | 0.961 ± 0.026 | 0.9313 ± 0.009 | 0.923 ± 0.062 | 0.919 ± 0.042 | 1.04 ± 0.019 | 1.02 ± 0.061 | 1.18 ± 0.027 | 1.116 ± 0.006
ASKA SYNOVIAL | 1.13 ± 0.033 | 1.02 ± 0.11 | 1.145 ± 0.0067 | 1.15 ± 0.036 | 1.08 ± 0.08 | 0.988 ± 0.088 | 0.936 ± 0.083 | 0.864 ± 0.066 | 1.01 ± 0.033 | 1.03 ± 0.038 | 1.08 ± 0.045 | 0.951 ± 0.022 | 1.05 ± 0.015 | 1.01 ± 0.018 | 0.724 ± 0.024 | 0.525 ± 0.028
BT20 BREAST | 1.076 ± 0.0072 | 1.073 ± 0.0027 | 1.06 ± 0.05 | 1.16 ± 0.084 | 0.913 ± 0.14 | 1.01 ± 0.14 | 0.984 ± 0.12 | 0.878 ± 0.062 | 1.05 ± 0.17 | 1.09 ± 0.21 | 1.06 ± 0.17 | 1.05 ± 0.2 | 0.941 ± 0.21 | 0.943 ± 0.22 | 0.872 ± 0.19 | 0.491 ± 0.12
BT549 BREAST | 1.1 ± 0.15 | 0.924 ± 0.095 | 1.1 ± 0.11 | 1.12 ± 0.11 | 1.05 ± 0.11 | 0.93 ± 0.14 | 1.01 ± 0.16 | 0.964 ± 0.15 | 1.12 ± 0.083 | 1.14 ± 0.11 | 1.15 ± 0.029 | 1.22 ± 0.051 | 1.12 ± 0.17 | 1.11 ± 0.068 | 0.773 ± 0.073 | 0.534 ± 0.034
C33A CERVIX | 0.986 ± 0.1 | 1.08 ± 0.05 | 1.07 ± 0.031 | 1.01 ± 0.06 | 1.13 ± 0.067 | 1.27 ± 0.031 | 1.2 ± 0.086 | 1.14 ± 0.12 | 0.86 ± 0.078 | 0.952 ± 0.064 | 1.04 ± 0.031 | 1.05 ± 0.098 | 1.04 ± 0.15 | 1.05 ± 0.096 | 0.805 ± 0.014 | 0.615 ± 0.048
CADOES1 SOFT TISSUE | 1.02 ± 0.17 | 0.987 ± 0.05 | 1.01 ± 0.13 | 0.93 ± 0.071 | 0.932 ± 0.13 | 1.02 ± 0.045 | 0.963 ± 0.055 | 1.01 ± 0.057 | 0.968 ± 0.063 | 0.916 ± 0.028 | 0.865 ± 0.096 | 0.824 ± 0.057 | 0.71 ± 0.23 | 0.397 ± 0.23 | 0.242 ± 0.057 | 0.0883 ± 0.016
CAL51 BREAST | 0.977 ± 0.039 | 0.897 ± 0.066 | 1.01 ± 0.038 | 0.947 ± 0.073 | 1.03 ± 0.068 | 1.01 ± 0.06 | 0.952 ± 0.059 | 0.971 ± 0.032 | 0.956 ± 0.013 | 0.951 ± 0.056 | 1.02 ± 0.011 | 0.906 ± 0.021 | 1.02 ± 0.024 | 0.97 ± 0.078 | 0.65 ± 0.022 | 0.403 ± 0.01
CAL72 BONE | 1.02 ± 0.031 | 1.06 ± 0.018 | 1.03 ± 0.038 | 1.06 ± 0.018 | 0.979 ± 0.033 | 1.02 ± 0.013 | 0.969 ± 0.062 | 0.977 ± 0.06 | 1.02 ± 0.056 | 1.09 ± 0.022 | 1.08 ± 0.02 | 1.07 ± 0.026 | 1.08 ± 0.029 | 1.07 ± 0.018 | 1.05 ± 0.022 | 1.06 ± 0.042
CAL120 BREAST | 1.02 ± 0.041 | 1.02 ± 0.012 | 1.04 ± 0.052 | 1.03 ± 0.035 | 1.04 ± 0.027 | 1.01 ± 0.072 | 1.04 ± 0.081 | 1.02 ± 0.049 | 0.944 ± 0.017 | 0.896 ± 0.025 | 0.922 ± 0.013 | 0.883 ± 0.036 | 0.896 ± 0.025 | 0.78 ± 0.009 | 0.4962 ± 0.0023 | 0.248 ± 0.054
CASKI CERVIX | 0.914 ± 0.026 | 0.993 ± 0.024 | 1.01 ± 0.063 | 0.96 ± 0.045 | 0.88 ± 0.063 | 0.785 ± 0.035 | 0.764 ± 0.13 | 0.77 ± 0.075 | 0.88 ± 0.024 | 0.942 ± 0.062 | 0.957 ± 0.013 | 0.903 ± 0.029 | 0.971 ± 0.046 | 0.955 ± 0.034 | 0.496 ± 0.02 | 0.448 ± 0.027
CHLA90 AUTONOMIC GANGLIA | 0.993 ± 0.057 | 1.01 ± 0.082 | 0.957 ± 0.036 | 1.09 ± 0.076 | 1.1 ± 0.055 | 1.14 ± 0.12 | 1.11 ± 0.016 | 1.09 ± 0.077 | 0.971 ± 0.026 | 1.08 ± 0.046 | 0.976 ± 0.013 | 0.839 ± 0.047 | 1.02 ± 0.052 | 0.982 ± 0.063 | 0.977 ± 0.022 | 0.844 ± 0.053
CME SYNOVIAL | 1.17 ± 0.064 | 1.15 ± 0.24 | 1.31 ± 0.15 | 1.21 ± 0.091 | 1.1 ± 0.12 | 1 ± 0.099 | 0.926 ± 0.11 | 0.483 ± 0.026 | 1.25 ± 0.12 | 1.15 ± 0.087 | 1.21 ± 0.061 | 0.882 ± 0.044 | 1.28 ± 0.1 | 1.08 ± 0.043 | 0.607 ± 0.089 | 0.383 ± 0.027
COLO320DM LARGE INTESTINE | 1.12 ± 0.059 | 1.04 ± 0.086 | 1.05 ± 0.13 | 1.08 ± 0.061 | 1.06 ± 0.095 | 0.961 ± 0.022 | 0.949 ± 0.024 | 0.764 ± 0.04 | 1.1 ± 0.13 | 1.18 ± 0.15 | 1.12 ± 0.086 | 1.04 ± 0.049 | 1.22 ± 0.17 | 1.07 ± 0.14 | 0.577 ± 0.041 | 0.177 ± 0.0091
DU4475 BREAST | 1.12 ± 0.018 | 1.06 ± 0.023 | 1.14 ± 0.13 | 1.06 ± 0.063 | 0.925 ± 0.088 | 1.06 ± 0.1 | 1.05 ± 0.066 | 0.9 ± 0.061 | 1.41 ± 0.74 | 1.08 ± 0.76 | 1.05 ± 0.56 | 1.25 ± 0.66 | 1.07 ± 0.57 | 0.952 ± 0.38 | 0.627 ± 0.22 | 0.431 ± 0.17
H23 LUNG | 1.04 ± 0.077 | 1.05 ± 0.052 | 1.14 ± 0.025 | 1.08 ± 0.033 | 1.24 ± 0.096 | 1.26 ± 0.088 | 1.18 ± 0.094 | 1.17 ± 0.1 | 1.04 ± 0.048 | 0.983 ± 0.034 | 1.04 ± 0.036 | 1 ± 0.0087 | 1.18 ± 0.034 | 1.27 ± 0.037 | 1.44 ± 0.1 | 1.29 ± 0.062
HCC78 LUNG | 1.01 ± 0.092 | 0.993 ± 0.085 | 0.994 ± 0.055 | 1.1 ± 0.12 | 1.05 ± 0.09 | 1.1 ± 0.095 | 0.719 ± 0.085 | 0.525 ± 0.03 | 1.01 ± 0.12 | 0.818 ± 0.22 | 0.852 ± 0.12 | 1 ± 0.091 | 0.947 ± 0.22 | 1.06 ± 0.019 | 0.326 ± 0.042 | 0.0463 ± 0.011
HCC202 BREAST | 1.36 ± 0.11 | 1.08 ± 0.044 | 0.83 ± 0.15 | 0.987 ± 0.5 | 1.01 ± 0.22 | 1.09 ± 0.069 | 1.08 ± 0.052 | 0.912 ± 0.034 | 1.19 ± 0.26 | 1.12 ± 0.13 | 1.31 ± 0.11 | 1.12 ± 0.12 | 0.808 ± 0.14 | 0.777 ± 0.34 | 0.476 ± 0.12 | 0.295 ± 0.049
